pIC50: −log10 of the molar value. Structures can show the parent of a compound that is named as a salt.
Each compound was assayed against DPP-IV enzyme (Homo sapiens, UniProt P27487) (assay: Assay for determining DPP-IV inhibitory activity (DPP-IV-Glo luminescence)).
Chain of DPP-IV enzyme (P27487 whole entry): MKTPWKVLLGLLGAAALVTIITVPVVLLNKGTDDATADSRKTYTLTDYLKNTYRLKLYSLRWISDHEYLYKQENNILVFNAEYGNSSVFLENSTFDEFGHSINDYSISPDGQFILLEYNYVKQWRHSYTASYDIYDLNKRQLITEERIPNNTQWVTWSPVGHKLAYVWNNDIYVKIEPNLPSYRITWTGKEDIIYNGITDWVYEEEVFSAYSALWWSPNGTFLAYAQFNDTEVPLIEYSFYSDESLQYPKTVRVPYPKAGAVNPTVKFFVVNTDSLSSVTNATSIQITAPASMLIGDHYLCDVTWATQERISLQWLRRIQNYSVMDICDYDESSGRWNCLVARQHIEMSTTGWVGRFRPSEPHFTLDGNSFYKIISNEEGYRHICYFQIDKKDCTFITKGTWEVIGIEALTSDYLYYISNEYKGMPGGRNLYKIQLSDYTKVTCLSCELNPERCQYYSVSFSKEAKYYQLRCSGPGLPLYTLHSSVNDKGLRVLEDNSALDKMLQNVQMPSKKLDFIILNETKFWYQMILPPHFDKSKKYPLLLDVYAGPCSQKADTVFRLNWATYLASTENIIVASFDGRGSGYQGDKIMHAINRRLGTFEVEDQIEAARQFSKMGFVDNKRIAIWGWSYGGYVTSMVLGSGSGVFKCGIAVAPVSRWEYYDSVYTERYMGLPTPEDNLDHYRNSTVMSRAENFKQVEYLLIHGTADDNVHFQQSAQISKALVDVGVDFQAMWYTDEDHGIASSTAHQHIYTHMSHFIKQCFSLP
Procedure: IC50 was determined by a NovoStar ELIASA (BMG Co. German);
The definition of inhibitory rate: [1−(S−B)/(N−B)]*100%
With `CS(=O)(=O)CCNC(=O)c1nc(C(F)(F)F)n2c1CN(C(=O)C[C@H](N)Cc1cc(F)c(F)cc1F)CC2` [Example 2, (R)-7-[3-Amino-4-(2,4,5-trifluoro-phenyl)-butyryl]-3-trifluoromethyl-5,6,7,8-tetrahydro-imidazo[1,5-a]pyrazine-1-carboxylic acid (2-methanesulfonyl-ethyl)-amide hydrochloride] the pIC50 was 8.10. For `N[C@@H](CC(=O)N1CCn2c(C(F)(F)F)nc(C(=O)N3CCOCC3)c2C1)Cc1cc(F)c(F)cc1F` [Example 3, (R)-3-Amino-1-[1-(morpholine-4-carbonyl)-3-trifluoromethyl-5,6-dihydro-8H-imidazo[1,5-a]pyrazin-7-yl]-4-(2,4,5-trifluoro-phenyl)-butan-1-one hydrochloride], the pIC50 was 7.05. In the case of `N#CCNC(=O)c1nc(C(F)(F)F)n2c1CN(C(=O)C[C@H](N)Cc1cc(F)c(F)cc1F)CC2` [Example 4, (R)-7-[3-Amino-4-(2,4,5-trifluoro-phenyl)-butyryl]-3-trifluoromethyl-5,6,7,8-tetrahydro-imidazo[1,5-a]pyrazine-1-carboxylic acid cyanomethyl-amide hydrochloride], the pIC50 was 7.66. In the case of `CN1CCN(C(=O)c2nc(C(F)(F)F)n3c2CN(C(=O)C[C@H](N)Cc2cc(F)c(F)cc2F)CC3)CC1` [Example 5, (R)-3-Amino-1-[1-(4-methyl-piperazine-1-carbonyl)-3-trifluoromethyl-5,6-dihydro-8H-imidazo[1,5-a]pyrazin-7-yl]-4-(2,4,5-trifluoro-phenyl)-butan-1-one dihydrochloride], the pIC50 was 7.57. For `N[C@@H](CC(=O)N1CCn2c(C(F)(F)F)nc(C(=O)N3CCS(=O)(=O)CC3)c2C1)Cc1cc(F)c(F)cc1F` [Example 6, (R)-3-Amino-1-[1-(1,1-dioxo-thiomorpholine-4-carbonyl)-3-trifluoromethyl-5,6-dihydro-8H-imidazo[1,5-a]pyrazin-7-yl]-4-(2,4,5-trifluoro-phenyl)-butan-1-one hydrochloride], the pIC50 was 7.51. With `NC(=O)C1CCN(C(=O)c2nc(C(F)(F)F)n3c2CN(C(=O)C[C@H](N)Cc2cc(F)c(F)cc2F)CC3)CC1` [Example 7, (R)-1-{7-[3-Amino-4-(2,4,5-trifluoro-phenyl)-butyryl]-3-trifluoromethyl-5,6,7,8-tetrahydro-imidazo[1,5-a]pyrazine-1-carbonyl}-piperidine-4-carboxylic acid amide hydrochloride] the pIC50 was 7.60. Compound `CNC(=O)c1nc(C(F)(F)F)n2c1CN(C(=O)C[C@H](N)Cc1cc(F)c(F)cc1F)CC2` [Example 8, (R)-7-[3-Amino-4-(2,4,5-trifluoro-phenyl)-butyryl]-3-trifluoromethyl-5,6,7,8-tetrahydro-imidazo[1,5-a]pyrazine-1-carboxylic acid methylamide hydrochloride] has a pIC50 of 8.10. Compound `CN(C)C(=O)c1nc(C(F)(F)F)n2c1CN(C(=O)C[C@H](N)Cc1cc(F)c(F)cc1F)CC2` [Example 9, (R)-7-[3-Amino-4-(2,4,5-trifluoro-phenyl)-butyryl]-3-trifluoromethyl-5,6,7,8-tetrahydro-imidazo[1,5-a]pyrazine-1-carboxylic acid dimethylamide hydrochloride] has a pIC50 of 7.12. With `N[C@@H](CC(=O)N1CCn2c(C(F)(F)F)nc(C(=O)O)c2C1)Cc1cc(F)c(F)cc1F` [Example 10, (R)-7-[3-Amino-4-(2,4,5-trifluoro-phenyl)-butyryl]-3-trifluoromethyl-5,6,7,8-tetrahydro-imidazo[1,5-a]pyrazine-1-carboxylic acid hydrochloride] the pIC50 was 7.68. Work on `N[C@@H]1CCCN(C(=O)c2nc(C(F)(F)F)n3c2CN(C(=O)C[C@H](N)Cc2cc(F)c(F)cc2F)CC3)C1` [Example 11, (R)-3-Amino-1-[1-(3-amino-piperidine-1-carbonyl)-3-trifluoromethyl-5,6-dihydro-8H-imidazo[1,5-a]pyrazin-7-yl]-4-(2,4,5-trifluoro-phenyl)-butan-1-one dihydrochloride] yielded a pIC50 of 6.67. `N[C@@H](CC(=O)N1CCn2c(C(F)(F)F)nc(C(=O)N3CCCC3)c2C1)Cc1cc(F)c(F)cc1F` [Example 12, (R)-3-Amino-1-[1-(pyrrolidine-1-carbonyl)-3-trifluoromethyl-5,6-dihydro-8H-imidazo[1,5-a]pyrazin-7-yl]-4-(2,4,5-trifluoro-phenyl)-butan-1-one hydrochloride] was tested, and the pIC50 was 7.23. With `N[C@@H](CC(=O)N1CCn2c(C(F)(F)F)nc(C(=O)N3CCNCC3)c2C1)Cc1cc(F)c(F)cc1F` [Example 13, (R)-3-Amino-1-[1-(piperazine-1-carbonyl)-3-trifluoromethyl-5,6-dihydro-8H-imidazo[1,5-a]pyrazin-7-yl]-4-(2,4,5-trifluoro-phenyl)-butan-1-one dihydrochloride] the pIC50 was 7.39. Compound `N[C@@H](CC(=O)N1CCn2c(C(F)(F)F)nc(C(=O)N3CC[C@@H](O)C3)c2C1)Cc1cc(F)c(F)cc1F` [Example 14, (R)-3-Amino-1-[1-((R)-3-hydroxy-pyrrolidine-1-carbonyl)-3-trifluoromethyl-5,6-dihydro-8H-imidazo[1,5-a]pyrazin-7-yl]-4-(2,4,5-trifluoro-phenyl)-butan-1-one hydrochloride] has a pIC50 of 7.33. `N[C@@H](CC(=O)N1CCn2c(C(F)(F)F)nc(C(=O)NC3CC3)c2C1)Cc1cc(F)c(F)cc1F` [Example 15, (R)-7-[3-Amino-4-(2,4,5-trifluoro-phenyl)-butyryl]-3-trifluoromethyl-5,6,7,8-tetrahydro-imidazo[1,5-a]pyrazine-1-carboxylic acid cyclopropylamide hydrochloride] gave a pIC50 of 7.60. `CCOC(=O)c1nc(C(F)(F)F)n2c1CN(C(=O)C[C@H](N)Cc1cc(F)c(F)cc1F)CC2` [Example 23, (R)-7-[3-Amino-4-(2,4,5-trifluoro-phenyl)-butyryl]-3-trifluoromethyl-5,6,7,8-tetrahydro-imidazo[1,5-a]pyrazine-1-carboxylic acid ethyl ester hydrochloride] showed a pIC50 of 7.51. `CCOC(=O)OC(C)OC(=O)c1nc(C(F)(F)F)n2c1CN(C(=O)C[C@H](N)Cc1cc(F)c(F)cc1F)CC2` (stereo partly drawn) [Example 34, (R)-7-[3-Amino-4-(2,4,5-trifluoro-phenyl)-butyryl]-3-trifluoromethyl-5,6,7,8-tetrahydro-imidazo[1,5-a]pyrazine-1-carboxylic acid (1-ethoxycarbonyloxy)-ethyl ester hydrochloride] showed a pIC50 of 7.51. `CC(C)(C)OC(=O)c1nc(C(F)(F)F)n2c1CN(C(=O)C[C@H](N)Cc1cc(F)c(F)cc1F)CC2` [Example 36, (R)-7-[3-Amino-4-(2,4,5-trifluoro-phenyl)-butyryl]-3-trifluoromethyl-5,6,7,8-tetrahydro-imidazo[1,5-a]pyrazine-1-carboxylic acid tert-butyl ester hydrochloride] showed a pIC50 of 6.66. `CC(C)OC(=O)OC(C)OC(=O)c1nc(C(F)(F)F)n2c1CN(C(=O)C[C@H](N)Cc1cc(F)c(F)cc1F)CC2` (stereo partly drawn) [Example 37, (R)-7-[3-Amino-4-(2,4,5-trifluoro-phenyl)-butyryl]-3-trifluoromethyl-5,6,7,8-tetrahydro-imidazo[1,5-a]pyrazine-1-carboxylic acid 1-isopropoxycarbonyloxy-ethyl ester hydrochloride] was tested, and the pIC50 was 7.48. With `CC(OC(=O)OC1CCCCC1)OC(=O)c1nc(C(F)(F)F)n2c1CN(C(=O)C[C@H](N)Cc1cc(F)c(F)cc1F)CC2` (stereo partly drawn) [Example 38, (R)-7-[3-Amino-4-(2,4,5-trifluoro-phenyl)-butyryl]-3-trifluoromethyl-5,6,7,8-tetrahydro-imidazo[1,5-a]pyrazine-1-carboxylic acid (1-cyclohexyloxycarbonyloxy)-ethyl ester hydrochloride] the pIC50 was 6.74. `COC(=O)c1nc(C(F)(F)F)n2c1C(C)N(C(=O)C[C@H](N)Cc1cc(F)c(F)cc1F)CC2` (stereo partly drawn) [Example 39, (R)-7-[3-Amino-4-(2,4,5-trifluoro-phenyl)-butyryl]-8-methyl-3-trifluoromethyl-5,6,7,8-tetrahydro-imidazo[1,5-a]pyrazine-1-carboxylic acid methyl ester hydrochloride] was tested, and the pIC50 was 7.80. Compound `COC(=O)c1nc(C(F)(F)F)n2c1[C@H](C)N(C(=O)C[C@H](N)Cc1cc(F)c(F)cc1F)CC2` [Example 40, (R)-7-[3-Amino-4-(2,4,5-trifluoro-phenyl)-butyryl]-(S)-8-methyl-3-trifluoromethyl-5,6,7,8-tetrahydro-imidazo[1,5-a]pyrazine-1-carboxylic acid methyl ester hydrochloride] has a pIC50 of 6.50. For `COC(=O)c1nc(C(F)(F)F)n2c1[C@@H](C)N(C(=O)C[C@H](N)Cc1cc(F)c(F)cc1F)CC2` [Example 41, (R)-7-[3-Amino-4-(2,4,5-trifluoro-phenyl)-butyryl]-(R)-8-methyl-3-trifluoromethyl-5,6,7,8-tetrahydro-imidazo[1,5-a]pyrazine-1-carboxylic acid methyl ester hydrochloride], the pIC50 was 8.30. Work on `CCNC(=O)c1nc(C(F)(F)F)n2c1CN(C(=O)C[C@H](N)Cc1cc(F)c(F)cc1F)CC2` [Example 42, (R)-7-[3-Amino-4-(2,4,5-trifluoro-phenyl)-butyryl]-3-trifluoromethyl-5,6,7,8-tetrahydro-imidazo[1,5-a]pyrazine-1-carboxylic acid ethylamide] yielded a pIC50 of 7.74. Work on `CCCCNC(=O)c1nc(C(F)(F)F)n2c1CN(C(=O)C[C@H](N)Cc1cc(F)c(F)cc1F)CC2` [Example 43, (R)-7-[3-Amino-4-(2,4,5-trifluoro-phenyl)-butyryl]-3-trifluoromethyl-5,6,7,8-tetrahydro-imidazo[1,5-a]pyrazine-1-carboxylic acid butylamide] yielded a pIC50 of 7.20. `CCCNC(=O)c1nc(C(F)(F)F)n2c1CN(C(=O)C[C@H](N)Cc1cc(F)c(F)cc1F)CC2` [Example 44, (R)-7-[3-Amino-4-(2,4,5-trifluoro-phenyl)-butyryl]-3-trifluoromethyl-5,6,7,8-tetrahydro-imidazo[1,5-a]pyrazine-1-carboxylic acid propylamide] gave a pIC50 of 7.28.
